Results from patent US20020142982A1, “Method for regulating angiogenesis” (priority 1999, published 2002).

Assays:
Format in all cases: cell-based, human
ERK-2 = ERK-2 immune complex kinase assay in HUVEC; settings: PTx 200 ng/mL or PD98059 10 μM, 2 hours pretreatment
Description: As a second functional assay, ERK-2 kinase activity was measured in response to SPP treatment. For these experiments, endothelial cells were starved for 19 hours, and then stimulated with SPP for 10 minutes. Cells were then lysed, and ERK-2 kinase activity was measured by an immune complex kinase assay using myelin basic protein (MBP) as substrate. Some cells were pretreated with pertussis toxin (PTx) at 200 ng/mL, or PD98059 at 10 μM for 2 hours prior to stimulation.

HUVEC [1] = test: C2-Ceramide-induced apoptosis of HUVEC (DNA fragmentation); settings: pretreatment 2 hours; PD98059 10 μM
Description: The ability of SPP to protect endothelial cells from apoptosis was investigated. In these experiments, HUVEC were treated with 1 μM C2-Ceramide for 12 hours and apoptosis was measured in the following manner: HUVEC were plated onto coverslips and allowed to grow for 2 days. Cells were washed three times with medium M199, and treated with 1 μM C2-Ceramide (Biomol) for 12 hours in the presence or absence of SPP. Subsequently, cells were fixed with methanol at −20° C. for 5 minutes, air dried, and stained with Hoechst 33258 dye (0.5 μg/mL for 5 minutes; Sigma Chemical Co., St. Louis, Mo.). The apoptotic nuclei were identified with the aid of a Zeiss Axiovert 100TB fluorescence microscope. For quantification, HUVEC were labeled with ^3Hmethyl-thymidine (5 μCi/mL, NEN DuPont) for 24 hours. Following three washes with medium M199, cells were treated with C2-Ceramide as above. 12 hours later, cells were extracted with lysis buffer (5 mM tris, pH 7.4, 2 mM EDTA, 0.5% TX-100) at 4° C. for 20 minutes. After centrifugation (15,000 g, 20 minutes), the radioactivity present in the supernatant and sediment was measured by liquid scintillation counting. The percentage of DNA fragmentation was determined as ((supernatant cpm)/(supernatant cpm+sediment cpm))×100%.
SPP+PTx and SPP+PD98059 (10 μM), respectively, for 2 hours prior to the addition of C2-Ceramide (1 μM) and SPP (10 to 500 nM). Data are mean±standard deviation of triplicate determinations from a representative experiment which was repeated two times. […] A similar effect was also seen when growth factor withdrawal, and 15-deoxy Δ^12,14 prostaglandin J2 were used as apoptotic stimuli (data not shown). […] Therefore SPP induced endothelial cell survival requires the Gi/ERK signaling pathway.

HUVEC [2] = test: Adherens junction assembly in HUVEC, immunofluorescence of VE-cadherin and catenins; settings: for VE-cadherin, α-, β- and γ-catenin localization at cell-cell junctions: 500 nM, 1 hour
Description: To investigate whether SPP regulates the formation of adherens junction in endothelial cells, HUVEC were plated at a density of 2×10^4 cells/em^2 for 2 days, starved in lipid-depleted medium and treated without (cont) or with SPP (500 nM for 1 hours). For these experiments, after treatment cells were washed with ice-cold PBS, fixed with 4% formaldehyde at room temperature or methanol at −20° C. for 15 minutes. In the case of formaldehyde fixation, cells were permeabilized with 0.2% TX-100. After washing with PBS, cells were stained with antibodies as follows: VE-cadherin ([…], Transduction Labs, San Diego, Calif.; 1 μg/mL, Santa Cruz Biotechnology, Inc., Santa Cruz, Calif.), α-catenin ([…], Transduction Labs), β-catenin (1.25 μg/mL, Transduction Labs; 0.4 μg/mL, Santa Cruz), γ-catenin ([…], Transduction Labs). The primary antibody staining was visualized with FITC-conjugated goat anti-rabbit or TRITC conjugated sheep anti-mouse (1:1000, Cappel, now owned by ICN, Costa Mesa, Calif.) for 30 minutes at room temperature, and imaged on a Zeiss Axiovert 100TV fluorescence microscope. […]

HUVEC [3] = test: HUVEC morphogenesis on MATRIGEL (in vitro angiogenesis, tubular length); settings: for HUVEC morphogenesis on MATRIGEL (tubular length): 12-18 hours, SPM and C1P 1 μM
Description: FIG. 42 is microscope images showing morphogenesis of HUVEC cells plated on Matrigel. HUVEC cells were transduced with 50 MOI of indicated viruses; a,b=none, c=β-gal, d=wild-type EDG-1, e=T236AEDG-1, f=T236AEDG-1+wild-type Akt. Total viral load in c-f is normalized. In vitro angiogenesis assay on Matrigel was conducted in the presence (b to f) or not (a) of 100 nM S1P. The numbers are mean±s.e.m of total tubular length per microscopic field (n=2). Scale bar=170 μm.
To investigate SPP induction of angiogenesis, 200 μL aliquots of thawed MATRIGEL were polymerized in 24-well tissue culture plates. HUVEC were trypsinized, resuspended in plain M199 medium containing soybean trypsin inhibitor (10 mg/mL, Sigma Chemical Co., St. Louis, Mo.). Following centrifugation (250 g; 5 minutes), cells were resuspended in plain M199 supplemented with 2% CFBS at a density of 1.5×10^5 cells/mL. 200 μL of cell suspension were seeded on these gels in the presence or absence of SPP (Biomol), for 12-18 hours. Cells were rinsed two times with phosphate buffered saline (PBS), and then fixed with 4% formaldehyde. Results were recorded photographically using a Zeiss Axiovert 100TV microscope equipped with a 5× objective. Five random fields of each well were photographed, and total tubular length was quantified by image analysis (Kinsella, J. et al., Experimental Cell Research 199: 56-62 (1992); Gamble J., et al., J. Cell Biol. 121: 931-943 (1993)).
Scale bar represents 52 microns. These quantitative data are the mean±standard deviation of duplicate determinations from a representative experiment which was repeated at least three times. SPP concentrations (in μM) are indicated in parentheses. For SPP +PTx, HUVEC were pretreated with PTx (200 ng/mL) for 2 hours, trypsinized, plated onto MATRIGEL, then stimulated with 500 nM SPP in the presence of PTx (20 ng/mL) for 16-18 hours. For SPP+C3, HUVEC were pretreated with C3 exoenzyme (10 μg/mL) for 48 hours, trypsinized, plated onto MATRIGEL, stimulated with 500 nM SPP together with the same concentration of C3 exotoxin. SPM, sphingomyelin (1 μM). For C1P, C8-ceramide-1-phosphate (1 μM). The maximal effects achieved by 1 μM SPP was indistinguishable from the positive control medium which contained FBS.
In these experiments, HUVEC were plated onto MATRIGEL in the presence of the same amount of corresponding antibodies without or with 500 nM SPP. 16 hours later, total length of HUVEC networks formed on MATRIGEL was quantified.

HUVEC [4] = test: SPP-induced intracellular calcium in HUVEC (Indo-1 fluorescence); settings: PTx 500 ng/mL pretreatment 16 hours
Description: Functional assays were used to test for the presence of Gi-coupled and Gq-coupled SPP receptors in HUVEC. First, intracellular calcium levels were measured in response to SPP. For these experiments, cells were grown on 100-mm tissue culture dishes and loaded with the fluorescent calcium-sensitive dye, Indo-1 acetoxymethyl ester (Indo-1/AM, 5 μg/mL; Molecular Probes, Inc., Eugene, Oreg.), for 30 min at 37° C. Cells were then washed with medium M199, briefly trypsinized (0.05% porcine trypsin/0.02% EDTA in HBSS (JRH Biosciences, Lenexa, Kans.), and the trypsin activity was immediately neutralized with soybean trypsin inhibitor (5 μg/mL, Sigma Chemical Co., St. Louis, Mo.). Following centrifugation (250 g×5 min), cells were resuspended in M199 medium to a density of 2.7×10^5 cells/mL. Cells were then stimulated with different doses of SPP. Some cells were pretreated with the Gi inhibitor pertussis toxin (PTx, 500 ng-/mL) for 16 hours. Calcium ion concentration was then quantified by measuring changes in indo-1 fluorescence in 2 mL of cell suspension by a Hitachi F-2000 fluorescence Spectrophotometer with constant stirring. Fluorescence emission was monitored at 400 and 475 nm with excitation at 352 nm. [Ca^+2]1 was calculated as described in Volpi and Berlin, J. Cell Biol., Vol. 107, 2533-39 (1988).

Compound	inhibition of SPP-induced ERK activity (ERK-2)	inhibition of the cytoprotective effect of SPP (HUVEC [1])	VE-cadherin, α-, β- and γ-catenin localization at cell-cell junctions (HUVEC [2])	HUVEC morphogenesis on MATRIGEL (tubular length) (HUVEC [3])	also measured
COc1cccc(-c2cc(=O)c3ccccc3o2)c1N [PD98059]	inhibited completely	completely inhibited			
CCCCCCCCCCCCC/C=C/[C@@H](O)[C@H](COP(=O)(O)O)NC(=O)CCCCCCC [ceramide-1-phosphate, C8-ceramide-1-phosphate]			had no effect	inactive	
CCCCCCCCCCCCC/C=C/[C@@H](O)[C@@H](N)CO [sphingosine]			had no effect		
ceramide			had no effect		
pertussis toxin	inhibited completely	completely inhibited			inhibition of SPP-induced β-catenin translocation (HUVEC [2]; HUVEC, SPP treatment): did not inhibit; inhibition of SPP-induced calcium response (HUVEC [4]): approximately 90%; inhibition of SPP-induced morphogenesis (HUVEC [3]; 500 nM SPP, MATRIGEL): potently inhibited
sphingomyelin			had no effect	inactive	
